Laboratory results reported in patent US20240122180A1, “FUNGICIDAL HALOMETHYL KETONES AND HYDRATES AND THEIR MIXTURES” (FMC Corporation, priority 2020, published 2024).

System: Phakopsora pachyrhizi (the causal agent of Asian soybean rust)
Assay: Test F: Compound 32 or 64 alone and in mixtures on soybean seedlings, observed (Obsd) and Colby expected (Exp) disease control
Type: in vivo
Settings: for pest or weed control at 20.511 ppm: trifloxystrobin 20.511 ppm alone; for pest or weed control at 35.31 ppm: trifloxystrobin 35.310 ppm alone; for pest or weed control at 29.673 ppm: metominostrobin 29.673 ppm alone; for pest or weed control at 86.003 ppm: metominostrobin 86.003 ppm alone; for pest or weed control at 45.86 ppm: pyraclostrobin 45.860 ppm alone; for pest or weed control at 137.503 ppm: pyraclostrobin 137.503 ppm alone; for pest or weed control at 138.129 ppm: chlorothalonil 138.129 ppm alone; for pest or weed control at 222.081 ppm: chlorothalonil 222.081 ppm alone; for pest or weed control at 10.165 ppm: prothioconazole 10.165 ppm alone; for pest or weed control at 16.339 ppm: prothioconazole 16.339 ppm alone; for pest or weed control at 78.393 ppm: fenpropidin 78.393 ppm alone; for pest or weed control at 161.74 ppm: fenpropidin 161.740 ppm alone
Description: The general protocol for preparing test compositions for Test F was as follows: Compound 32, Compound 64, azoxystrobin, benzovindiflupyr, bixafen, chlorothalonil, cyproconazole, epoxiconazole, fenpropidin, fenpropimorph, fluindapyr, flutriafol, fluxapyroxad, metominostrobin, picoxystrobin, prothioconazole, pydiflumetofen, pyraclostrobin, tebuconazole and trifloxystrobin were obtained as unformulated, technical-grade materials. Copper hydroxide and mancozeb was obtained as a formulated product marketed under the trademarks KOCIDE 3000 and MANZATE, respectively. Unformulated materials were first dissolved in acetone and then suspended at the desired concentration (in ppm) in acetone and purified water (50/50 mix by volume) containing 250 ppm of the surfactant Trem® 014 (polyhydric alcohol esters). Formulated materials were dispersed in sufficient water to give the desired concentration, and neither organic solvent nor surfactant was added to the suspension. The resulting test mixtures were then used in Test F. The tests were run on four individual plants and the results reported as the mean average of the four plants.
The presence of a synergistic effect between two active ingredients was established with the aid of the Colby equation (see Colby, S. R. “Calculating Synergistic and Antagonistic Responses of Herbicide Combinations”, Weeds, (1967), 15, 20-22):
Using the method of Colby, the presence of a synergistic interaction between two active ingredients is established by first calculating the predicted activity, p, of the mixture based on activities of the two components applied alone. If p is lower than the experimentally established effect, synergism has occurred. In the equation above, A is the fungicidal activity in percentage control of one component applied alone at rate x. The B term is the fungicidal activity in percentage control of the second component applied at rate y. The equation estimates p, the expected fungicidal activity of the mixture of A at rate x with B at rate y if their effects are strictly additive and no interaction has occurred.
The test mixture was sprayed to the point of run-off on soybean seedlings. The following day the seedlings were inoculated with a spore suspension of Phakopsora pachyrhizi (the causal agent of Asian soybean rust) and incubated in a saturated atmosphere at 22° C. for 24 h and then moved to a growth chamber at 22° C. for 8 days, after which time visual disease ratings were made.
Results for Test F are given in Tables B-1 through I-1 for Compound 32 and Tables B-2 through I-2 for Compound 64. Each table corresponds to a set of evaluations performed together at the same time. In each table, a rating of 100 indicates 100% disease control and a rating of 0 indicates no disease control (relative to the controls). Columns labeled “Obsd” indicate the average of results observed from test run on four individual plants. Columns labeled “Exp” indicate the expected value for each treatment mixture using the Colby equation.

[1] = Phakopsora pachyrhizi, Table E-2
[2] = Phakopsora pachyrhizi, Table H-1
[3] = Phakopsora pachyrhizi, Table H-2
[4] = Phakopsora pachyrhizi, Table G-1
[5] = Phakopsora pachyrhizi, Table G-2
[6] = Phakopsora pachyrhizi, Table I-1
[7] = Phakopsora pachyrhizi, Table I-2

CON=C(C(=O)OC)c1ccccc1CON=C(C)c1cccc(C(F)(F)F)c1 [trifloxystrobin] showed a pest or weed control at 20.511 ppm [1] of 69%, a pest or weed control at 35.31 ppm [1] of 86% and a pest or weed control at 20.511 ppm (Table E-1) of 69%. It also gave a pest or weed control at 35.31 ppm (Table E-1) of 86%.

Work on CNC(=O)/C(=N/OC)c1ccccc1Oc1ccccc1 [metominostrobin] yielded a pest or weed control at 29.673 ppm [2] of 13%, a pest or weed control at 29.673 ppm [3] of 13% and a pest or weed control at 86.003 ppm [2] of 37%. For the same molecule, the pest or weed control at 86.003 ppm [3] was 37%.

COC(=O)N(OC)c1ccccc1COc1ccn(-c2ccc(Cl)cc2)n1 [pyraclostrobin] gave a pest or weed control at 45.86 ppm [2] of 35%, a pest or weed control at 45.86 ppm [3] of 35% and a pest or weed control at 137.503 ppm [2] of 45%. For the same molecule, the pest or weed control at 137.503 ppm [3] was 45%.

Work on N#Cc1c(Cl)c(Cl)c(Cl)c(C#N)c1Cl [chlorothalonil] yielded a pest or weed control at 138.129 ppm [4] of 59%, a pest or weed control at 138.129 ppm [5] of 59% and a pest or weed control at 222.081 ppm [4] of 85%. It also gave a pest or weed control at 222.081 ppm [5] of 85%.

OC(Cc1ccccc1Cl)(Cn1nc[nH]c1=S)C1(Cl)CC1 (stereo not drawn) [prothioconazole] gave a pest or weed control at 10.165 ppm [4] of 7%, a pest or weed control at 10.165 ppm [5] of 7% and a pest or weed control at 16.339 ppm [4] of 65%. The pest or weed control at 16.339 ppm [5] was 65%.

With CO/C=C(/C(=O)OC)c1ccccc1Oc1cc(Oc2ccccc2C#N)ncn1 [azoxystrobin] the Obsd disease control (azoxystrobin 95.873 ppm alone, Table E-1) was 70%, the Obsd disease control (azoxystrobin 95.873 ppm alone, Table E-2) was 70% and the Obsd disease control (azoxystrobin 169.226 ppm alone, Table E-1) was 88%. It also gave an Obsd disease control (azoxystrobin 169.226 ppm alone, Table E-2) of 88%.

CC1CC(C)(C)c2c(F)ccc(NC(=O)c3cn(C)nc3C(F)F)c21 (stereo not drawn) [fluindapyr] showed an Obsd disease control (fluindapyr 8.820 ppm alone, Table C-1) of 61%, an Obsd disease control (fluindapyr 8.820 ppm alone, Table C-2) of 61% and an Obsd disease control (fluindapyr 15.230 ppm alone, Table C-1) of 79%. The Obsd disease control (fluindapyr 15.230 ppm alone, Table C-2) was 79%.

In the case of Cn1cc(C(=O)Nc2ccccc2-c2cc(F)c(F)c(F)c2)c(C(F)F)n1 [fluxapyroxad], the Obsd disease control (fluxapyroxad 2.757 ppm alone, Table C-1) is reported as 19%, the Obsd disease control (fluxapyroxad 2.757 ppm alone, Table C-2) is reported as 19% and the Obsd disease control (fluxapyroxad 4.748 ppm alone, Table C-1) is reported as 52%. It also gave an Obsd disease control (fluxapyroxad 4.748 ppm alone, Table C-2) of 52%.

CC(Cc1ccc(C(C)(C)C)cc1)CN1CCCCC1 (stereo not drawn) [fenpropidin] gave a pest or weed control at 78.393 ppm [6] of 45%, a pest or weed control at 78.393 ppm [7] of 45% and a pest or weed control at 161.74 ppm [6] of 68%. For the same molecule, the pest or weed control at 161.74 ppm [7] was 68%.
